Source: US10011814B2, “Salt formulations for the fermentation of marine microorganisms” (Triphase Research and Development I Corp., priority 2006, dated 2018)

System: Salinispora tropica NPS021184
Test: Production of Salinosporamide A and analogs in shake flask or tube culture; titers by HPLC of EtOAc extract
Conditions: for % Increase (+) or % decrease (−) of maximum titer: Ex.1 Table 1; for % Increase (+) or % decrease (−) of max titer: Ex.1 Table 2; for % increase/decrease of titer / relative % change (of % relative to Sal A): Ex.2 Table 3; for % Increase (+) or % decrease (−) of average max titer: Ex.2 Table 4; for relative decrease in production (relative to Salinosporamide A): 208 μg/L CoCl2·6H2O in seed medium, 52 μg/L in production medium vs no cobalt in seed
Experimental: Seed cultures were prepared by inoculating frozen stock of Salinispora tropica NPS021184 into seed medium.
(§1) The first seed cultures (either 10 mL medium in a 50-mL tube or 100 mL medium in a 500-mL Erlenmeyer flask) were incubated for 3 to 4 days before inoculating into the second seed media with the same composition as the first seed cultures. The second seed cultures (100 mL medium in a 500-mL Erlenmeyer flask) were incubated for two days before inoculating into the production medium (100 mL medium in a 500-mL Erlenmeyer flask).
The chemically defined salt formulation included: […]
(§2) 3.5 mL of the fermentation culture was mixed with equal volume of EtOAc in an extraction tube to extract the various metabolites from the production culture. The mixture was shaken on a shaker for one hr. An aliquot of the extract (1 mL) was removed and dried under a stream of nitrogen. The dried extract was stored at −20° C. freezer before HPLC analysis. The dried extract was resuspended in 320 μL DMSO and injected into HPLC using the 00TF14 method for analysis.
The production of Salinosporamide A, NPI-0047 and NPI-2065 was monitored by Agilent HP1100 HPLC using an ACE C-18 reversed-phase column (4.6×150 mm), and solvent system consisting of water (0.01% TFA) as solvent A and acetonitrile (0.01% TFA) as solvent B. The elution was started at 100% solvent A for 1 min, 100% solvent A to 35% solvent A gradient in 7 min, held at 35% solvent A for 11 min, 35% solvent A to 100% solvent B in 8 min and held at 100% solvent B for 9 min at a flow rate of 1.5 mL/min with the detector wavelength set at 210 nm and column temperature 35° C.
The first seed cultures (either 10 mL medium in a 50-mL tube or 100 ml medium in a 500-ml Erlenmeyer flask) were incubated for 3 to 4 days before inoculating into the second seed media with the same composition as the first seed cultures. The second seed cultures (100 mL medium in a 500-mL Erlenmeyer flask) were incubated for two days before inoculating into the production medium (100 mL medium in a 500-mL Erlenmeyer flask).
as §1, with “in a 50-ml tube or” for “in a 50-mL tube or”, “inoculating into production medium” for “inoculating into the production medium”
as §2, with “shaken” for “shaken on a shaker”, “1” for “one”, “[…]” for “μL”, “TFS7” for “00TF14”
The production of Salinosporamide A, NPI-0047 and NPI-2065 was monitored by Agilent HP1100 HPLC using an ACE C-18 reversed-phase column (4.6×150 mm), and isocratic solvent system consisting of 67% water (0.01% TFA) and 33% acetonitrile (0.01% TFA). The flow rate was 1.5 mL/min for 15 min with the detector wavelength set at 210 nm and column temperature 35° C.
3.5 mL of the fermentation culture was mixed with equal volume of EtOAc in an extraction tube to extract the various metabolites from the production culture. The mixture was shaken on the shaker for 1 hr. An aliquot of the extract (1 mL) was removed and dried under a stream of nitrogen. The dried extract was stored at −20° C. freezer before HPLC analysis. The dried extract was resuspended in 320 μL DMSO and injected into HPLC using the TFS7 method for analysis. […]

[1] = 104 μg/L CoCl2·6H2O in production medium vs no addition
[2] = 1.04 mg/L CoCl2·6H2O in production medium vs no addition
[3] = 10.4 mg/L CoCl2·6H2O in production medium vs no addition
[4] = 2.6 μg/L CoCl2·6H2O in production medium vs control
[5] = 5.2 μg/L CoCl2·6H2O in production medium vs control
[6] = 6.5 μg/L CoCl2·6H2O in production medium vs control
[7] = 13 μg/L CoCl2·6H2O in production medium vs control
[8] = 26 μg/L CoCl2·6H2O in production medium vs control
[9] = 52 μg/L CoCl2·6H2O in production medium vs control
[10] = 104 μg/L CoCl2·6H2O in production medium vs control
[11] = 208 μg/L CoCl2·6H2O in production medium vs control
[12] = 416 μg/L CoCl2·6H2O in production medium vs control
[13] = seed CoCl2·6H2O 0 μg/L (reference)
[14] = seed CoCl2·6H2O 2.6 μg/L vs 0 μg/L
[15] = seed CoCl2·6H2O 5.2 μg/L vs 0 μg/L
[16] = seed CoCl2·6H2O 13 μg/L vs 0 μg/L
[17] = seed CoCl2·6H2O 26 μg/L vs 0 μg/L
[18] = seed CoCl2·6H2O 52 μg/L vs 0 μg/L
[19] = seed CoCl2·6H2O 104 μg/L vs 0 μg/L
[20] = seed CoCl2·6H2O 208 μg/L vs 0 μg/L
[21] = seed CoCl2·6H2O 416 μg/L vs 0 μg/L
[22] = CoCl2·6H2O seed 0 / production 52 μg/L vs no cobalt
[23] = CoCl2·6H2O seed 208 μg/L / production 52 μg/L vs no cobalt
[24] = Ex.2, cobalt in both seed (208 μg/L) and production (52 μg/L) media vs media without cobalt
[25] = Ex.2, cobalt in seed and production media vs cobalt in production medium only

SMILES	% Increase (+) or % decrease (−) of maximum titer [1] [%]	% Increase (+) or % decrease (−) of maximum titer [2] [%]	% Increase (+) or % decrease (−) of maximum titer [3] [%]	% Increase (+) or % decrease (−) of max titer [4]	% Increase (+) or % decrease (−) of max titer [5] [%]	% Increase (+) or % decrease (−) of max titer [6]	% Increase (+) or % decrease (−) of max titer [7] [%]	% Increase (+) or % decrease (−) of max titer [8]	% Increase (+) or % decrease (−) of max titer [9] [%]	% Increase (+) or % decrease (−) of max titer [10] [%]	% Increase (+) or % decrease (−) of max titer [11]	% Increase (+) or % decrease (−) of max titer [12] [%]	% increase/decrease of titer [13] [%]	% increase/decrease of titer [14] [%]	% increase/decrease of titer [15] [%]	% increase/decrease of titer [16] [%]	% increase/decrease of titer [17] [%]	% increase/decrease of titer [18] [%]	% increase/decrease of titer [19] [%]	% increase/decrease of titer [20] [%]	further results
CC[C@H]1C(=O)N[C@@]2([C@@H](O)[C@@H]3C=CCCC3)C(=O)O[C@@]12C [NPI-0047, Salinosporamide B]	−65.9	−67.4	−71.3	−18.6%	−41.2	−38.2%	−52.0	−63.7%	−69.6	−65.7	−69.6%	−73.5	0.0	5.9	2.0	−17.2	−2.3	−21.6	−9.2	−11.9	reduction of concentration in the fermentation (Ex.14, 0.22 μM vitamin B12 added to production medium (Instant Ocean based)): 74%; reduction of production (Ex.1, 52 μg/L cobalt concentration in production medium vs control): 69.6%; decrease in production (Ex.1, 104 μg/L CoCl2·6H2O added to production medium vs none): 66%; relative % change (of % relative to Sal A) [13]: 0.0%; relative % change (of % relative to Sal A) [14]: 4.2%; relative % change (of % relative to Sal A) [15]: −2.7%; relative % change (of % relative to Sal A) [16]: −20.2%; relative % change (of % relative to Sal A) [17]: −28.4%; relative % change (of % relative to Sal A) [18]: −36.1%; relative % change (of % relative to Sal A) [19]: −29.9%; relative % change (of % relative to Sal A) [20]: −41.3%; % increase/decrease of titer [21]: −10.4%; relative % change (of % relative to Sal A) [21]: −21.5%; % Increase (+) or % decrease (−) of average max titer [22]: −71.7%; % Increase (+) or % decrease (−) of average max titer [23]: −78.0%; reduction of production by cobalt (Ex.21, NPS21184, CoCl2·6H2O 208 μg/L seed, 52 μg/L production vs no cobalt): 91%; relative decrease in production (relative to Salinosporamide A) (Ex.2): 41.3%; reduction of production [24]: 78.0%; reduction of production [25]: 22.2%
C[C@@]12OC(=O)[C@]1([C@@H](O)[C@@H]1C=CCCC1)NC(=O)[C@H]2CCCl [NPI-2065]	−21.0	−12.2	−30.8	−7.6%	−1.5	−6.1%	−1.5	+3.0%	−4.6	−1.5	−6.1%	−15.2	0.0	1.7	4.2	5.9	23.1	17.7	15.5	19.7	reduction of concentration in the fermentation (Ex.14, vitamin B12 in Instant Ocean based medium): 30%; reduction of concentration in the fermentation (Ex.15, Vitamin B12 or CoCl2·6H2O at 0.22 μM in salt formulation based medium): no reduction; maximum inhibition of production (Ex.1, 416 μg/L, highest cobalt concentration tested in production medium): 15%; inhibition of production (Ex.1, 10.4 mg/L CoCl2·6H2O in production medium vs none): 30.8%; relative % change (of % relative to Sal A) [13]: 0.0%; relative % change (of % relative to Sal A) [14]: 0.0%; relative % change (of % relative to Sal A) [15]: −0.5%; relative % change (of % relative to Sal A) [16]: 3.5%; relative % change (of % relative to Sal A) [17]: 3.5%; relative % change (of % relative to Sal A) [18]: 7.9%; relative % change (of % relative to Sal A) [19]: −0.5%; relative % change (of % relative to Sal A) [20]: −1.4%; % increase/decrease of titer [21]: 6.2%; relative % change (of % relative to Sal A) [21]: −3%; % Increase (+) or % decrease (−) of average max titer [22]: −37.2%; % Increase (+) or % decrease (−) of average max titer [23]: −44.9%; relative decrease in production (relative to Salinosporamide A) (Ex.2): 1.4%; reduction of production [24]: 44.9%; reduction of production [25]: 12.2%
C[C@@]12OC(=O)[C@]1([C@@H](O)[C@@H]1C=CCCC1)NC(=O)[C@@H]2CCCl [Salinosporamide A]	1.5	2.2	−1.4	+1.1%	−8.9	+1.2%	−0.3	−4.0%	−4.5	−3.0	+0.2%	−8.5	0.0	1.7	4.7	2.5	20.3	10.7	15.9	20.8	maximum production as % of the high sodium medium (Ex.11, low sodium medium (9.3 mM sodium, SHY.KCD) vs high sodium medium (413 mM sodium, SHY.B4C)): about 75%; % increase/decrease of titer [21]: 9.2%; % Increase (+) or % decrease (−) of average max titer [22]: +10.1%; % Increase (+) or % decrease (−) of average max titer [23]: 33.9%; % Increase (+) or % decrease (−) of average max titer (CoCl2·6H2O seed 208 μg/L / production 52 μg/L vs no cobalt, listed as SALINOSPORAMIDE A): +33.9%; concentration as % of the saline fermentation condition (Ex.23, low chloride medium (LoCl.PD) vs saline medium): about 35%; increase of production [25]: 21.6%
